These results are taken from ChEMBL document CHEMBL1143899, “Aryl-indolyl maleimides as inhibitors of CaMKIIdelta. Part 3: Importance of the indole orientation” (Bioorg Med Chem Lett, 2008).

pIC50: −log10 of the molar value. Bounds are passed on as bounds.

A word on the pIC50: it is −log10 of the IC50, conventionally taken in molar units.

T1 sequence (Q13557 whole entry): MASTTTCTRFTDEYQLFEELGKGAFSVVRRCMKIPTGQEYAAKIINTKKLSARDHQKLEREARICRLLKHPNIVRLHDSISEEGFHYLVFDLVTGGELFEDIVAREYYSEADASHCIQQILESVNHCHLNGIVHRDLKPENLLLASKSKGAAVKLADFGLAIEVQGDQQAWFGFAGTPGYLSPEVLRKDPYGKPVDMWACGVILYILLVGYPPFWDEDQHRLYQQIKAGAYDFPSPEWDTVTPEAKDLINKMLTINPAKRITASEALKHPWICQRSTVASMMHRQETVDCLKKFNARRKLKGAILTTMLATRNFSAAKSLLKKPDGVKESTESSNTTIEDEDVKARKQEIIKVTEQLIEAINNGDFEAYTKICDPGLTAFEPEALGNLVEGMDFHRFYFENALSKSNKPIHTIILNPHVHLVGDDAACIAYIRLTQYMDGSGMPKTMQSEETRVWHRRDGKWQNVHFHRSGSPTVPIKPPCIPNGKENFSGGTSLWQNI

One assay has as its target T1, Calcium/calmodulin-dependent protein kinase type II subunit delta (Homo sapiens, UniProt Q13557). In words: Inhibition of CaMK2delta using freshly stock solution of compound.
Take `NCCCn1cc(C2=C(c3ccccc3)C(=O)NC2=O)c2ccccc21`: the negative logarithm of the IC50 (pIC50) was 6.46.
As to `NCCCn1cc(C2=C(c3csc4ccccc34)C(=O)NC2=O)c2ccccc21`, the negative-log IC50 (pIC50) is 6.44.

The target of the next assay is T1, Calcium/calmodulin-dependent protein kinase type II subunit delta. In words: Inhibition of CaMK2delta using 3 weeks old stock solution of compound.
On to `NCCCn1cc(C2=C(c3ccccc3)C(=O)NC2=O)c2ccccc21`, for which the pIC50 is 6.64.
The same measure, in the same setting: then `NCCCn1cc(C2=C(c3csc4ccccc34)C(=O)NC2=O)c2ccccc21`, with more than 7.41.

Another assay shares this target. In words: Inhibition of CaMK2delta.
Turning to `CNCCc1cn(C2=C(c3c[nH]c4ccc(C(=O)N(C)C)cc34)C(=O)NC2=O)c2ccccc12`, the negative-log IC50 (pIC50) is 4.93.
Still for that read-out and setting: the figure for `NCCc1cn(C2=C(c3c[nH]c4ccc(Cl)cc34)C(=O)NC2=O)c2ccccc12` is 8.00; for `Cc1[nH]c2ccccc2c1C1=C(c2cn(CCCN)c3ccccc23)C(=O)NC1=O` it is 6.12.
On to `CNCCc1cn(C2=C(c3c[nH]c4ccc(C(=O)NC)cc34)C(=O)NC2=O)c2ccccc12`, for which the negative logarithm of the IC50 (pIC50) was 6.55.
As to `CN(C)CCc1cn(C2=C(c3c[nH]c4ccccc34)C(=O)NC2=O)c2ccccc12`, the pIC50 was 6.25.
Same read-out and setting: then `N#Cc1ccc2[nH]cc(C3=C(n4cc(CCN)c5ccccc54)C(=O)NC3=O)c2c1`, with 7.34; and `CN(C)Cc1cn(C2=C(c3c[nH]c4ccccc34)C(=O)NC2=O)c2ccccc12`, with 5.62.
Still for that read-out and setting: then `NCCCn1cc(C2=C(c3c[nH]c4ccccc34)C(=O)NC2=O)c2ccccc21`, with 6.42; and `CNCCc1cn(C2=C(c3c[nH]c4ccc(C(N)=O)cc34)C(=O)NC2=O)c2ccccc12`, with 6.72.
On the same count and under the same terms, then `CNCCc1cn(C2=C(c3c[nH]c4ccc(C(=O)O)cc34)C(=O)NC2=O)c2ccccc12`, with 6.42; and `COc1ccc2[nH]cc(C3=C(n4cc(CCN)c5ccccc54)C(=O)NC3=O)c2c1`, with 6.77.
For the molecule `CNCCc1cn(C2=C(c3c[nH]c4ccc(C(=O)OC)cc34)C(=O)NC2=O)c2ccccc12`, the negative logarithm of the IC50 (pIC50) was 7.68.
Turning to `CNCCc1cn(C2=C(c3c[nH]c4ccccc34)C(=O)NC2=O)c2ccccc12`, the pIC50 is 6.82.
Same read-out and setting: the figure for `CNCCc1cn(C2=C(c3c[nH]c4ccc(Cl)cc34)C(=O)NC2=O)c2ccccc12` is 7.89; for `NCCc1cn(C2=C(c3c[nH]c4ccc(C(F)(F)F)cc34)C(=O)NC2=O)c2ccccc12` it is 7.49; for `NCCc1cn(C2=C(c3c[nH]c4ccc(F)cc34)C(=O)NC2=O)c2ccccc12` it is 7.42.
On the same count and under the same terms, the figure for `CCc1ccc2[nH]cc(C3=C(n4cc(CCNC)c5ccccc54)C(=O)NC3=O)c2c1` is 6.96; for `NCCc1cn(C2=C(c3c[nH]c4ccccc34)C(=O)NC2=O)c2ccccc12` it is 6.96.
The same measure, in the same setting: the figure for `NCCCn1cc(C2=C(n3ccc4ccccc43)C(=O)NC2=O)c2ccccc21` is 5.34.
